In PubChem BioAssay AID179 (DTP/NCI, 2004):
pEC50, pIC50: −log10 of the molar value. Values joined by “and” are separate entries in the source; they are usually repeats but may differ in a detail not shown here. Equal values may be shown once. Active and inactive are the calls of the source.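 The calls were made as follows: active = compounds giving half or more protection of infected cells from virus-caused growth loss, again on retest; inactive = the rest.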 Where a SMILES comes first, the peptide text is derived from it.

Tested on: CEM cells HIV-1 protection, formazan growth assay
Assay: NCI AIDS Antiviral Assay
Conditions: for pIC50: measured here: growth of uninfected CEM cells
Procedure, shortened: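 Human CEM cells, uninfected and HIV-1-infected, exposed to five drug concentrations; growth measured by soluble formazan assay and scored as percent protection from infection, with protecting compounds retested.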

SMILES	pEC50	pIC50	outcome
CSC(SC)=C(C#N)C(=O)Nc1cccc(Cl)c1	< 3.70	4.52	–
O=c1[nH]n(CCc2ccccc2CCl)c2ccc([N+](=O)[O-])cc12	< 3.70	4.30	–
CSc1csc(-c2ccc(-c3ccc(-c4cc(SC)cs4)s3)s2)c1	< 4.00	< 4.00	–
CC1OC(OC2C(Oc3c(-c4ccc(O)c(O)c4O)oc4cc(O)ccc4c3=O)OC(CO)C(O)C2O)C(O)C(O)C1O (stereo not drawn)	< 3.70	4.66	–
COC(=O)c1cc2c(s1)C(=O)c1ccccc1-2	< 5.65	< 5.65	–
CC(C)CCCC(C)[C@H]1CCC2[C@@H]3CCC4Nc5c(cnn5-c5ccccc5)C[C@]4(C)C3CC[C@@]21C (stereo partly drawn)	–	–	inactive
CN1C(=O)c2cccc3cc([N+](=O)[O-])cc(c23)C1=O	< 4.27	4.99	–
Cc1cc(-c2ccccc2)[s+]s1	< 3.70	4.05 and 3.76	–
Cc1cccc(NC(=O)CC2C(=O)Nc3ccccc3S2(=O)=O)c1C (stereo not drawn)	< 5.25	< 5.25	–
O=C1c2cccnc2S(=O)(=O)N1c1ccc(Oc2ccccc2)cc1	< 3.70	< 3.70	–
Cc1cc(N(CCC#N)CCC#N)ccc1/C=C1N=C(/C=C/c2ccccc2)N(c2ccc(S(N)(=O)=O)cc2)C\1=O	–	–	inactive
O=Cc1c(O)c2ccccc2[nH]c1=O	< 5.26	< 5.26	–
COc1ccc(CCNC(=O)Cc2cc(OC)c(OC)cc2CO)cc1OC	< 3.70	3.71	–
CCC/C=C(/Br)[Si](C)(C)C	< 3.37	3.43	–
S=C1SC2(CCCC2)NC2=C1CCC2	< 3.90	< 3.90	–
CC1=C2C(=CC(C)(C)C2O)C(=O)C(C)(O)C12CC2 (stereo not drawn)	–	–	inactive
COc1cc2c[n+](C)c3c4cc5c(cc4ccc3c2cc1OC)OCO5	< 4.75	6.36	–
Cc1c2c(n3c(nc4ccccc43)c1C#N)N(c1ccc(Cl)cc1)CC2	< 4.30	< 4.30	–
O=C1C=C(Br)c2c(-c3ccccc3)oc3cccc1c23	–	–	inactive
NNC(=S)N/N=C(/C(=O)Nc1ccc([N+](=O)[O-])cc1)c1nc2ccc([N+](=O)[O-])cc2[nH]c1=O	< 3.84	< 3.84	–
COC(=O)c1c(C)cccc1C1CN=NC12Cc1ccccc1C2=O (stereo not drawn)	4.56	3.99	–
CCC(C)C(NC(=O)CNC(=O)CN)C(=O)NCC(=O)NCC(=O)O (stereo not drawn) (HELM PEPTIDE1{G.G.[CCC(C)C(N[*:1])C(=O)[*:2]].G.G}$$$$V2.0)	< 4.16	< 4.16	–
Cc1ncc2c[n+]([O-])ccn12	< 2.78	< 2.78	–

SMILES	pEC50	pIC50	outcome
Cc1nn(C(=O)c2ccccc2O)c2c1C(c1ccc(O)cc1)SC(N)=N2 (stereo not drawn)	< 5.70	6.89	–
CN(C)CCCN=c1c2ccccc2n(O)c2ccccc12	< 3.70	5.09	–
COC(=O)c1cccc2c3ccccc3c3ccccc3c12	–	–	inactive
C/C=C1\CN(C)C2Cc3c([nH]c4ccccc34)C(c3cc4c5c([nH]c4cc3OC)C3(C(=O)OC)CC4CC(CC)C3N(CC5)C4)CC1C2C(=O)OC (stereo not drawn)	–	–	inactive
CCOC(=O)CC(NC(=O)c1[nH]cnc1/N=N/N(C)C)C(=O)OCC (stereo not drawn)	< 3.15	< 3.15	–
COc1ccc(/C=C2\CCOC2=O)cc1OC	< 3.11	3.55	–
O=c1/c(=C/c2ccccc2[N+](=O)[O-])sc2nc3ccccc3n12	< 5.49	< 5.49	–
O=C1NC(c2cccc(Cl)c2)N2C(=O)NC(c3cccc(Cl)c3)N12 (stereo not drawn)	–	–	inactive
O=c1ccn(C2OC(COC3CCCCO3)C(OC3CCCCO3)C2OC2CCCCO2)c(=O)n1-c1ccccc1 (stereo not drawn)	< 3.70	< 3.70	–
COc1cc(C(=O)N(C(=O)N2CCCCC2)c2ccccc2)cc(OC)c1OC	< 3.70	< 3.70	–
O=C1/C(=C/c2ccc(OC(=O)c3ccccc3)cc2)CCC/C1=C\c1ccc(OC(=O)c2ccccc2)cc1	< 4.00	< 4.00	–
O=S(=O)(CSc1ccccc1)c1ccccc1	< 3.31	3.54	–
COc1cc([C@H]2c3cc(O)c(OC)cc3CC3C(=O)OCC32)ccc1O (stereo partly drawn)	< 3.44	< 3.44	–
CCCCCCCCCCCCCCCCCC(=O)O[C@H](COC(=O)CCCCCCCCCCC)COC(=O)CCCCCCCCCCCCCCC	< 4.00	< 4.00	–
CC(=O)N1C(C(=O)NN2CCOCC2)CSC1c1ccccc1 (stereo not drawn)	< 3.70	< 3.70	–
COCCCNC(=O)C1C(=O)C(=O)N(CCCOC)C1=O (stereo not drawn)	–	–	inactive
COc1c(-c2ccc(F)cc2)oc2c(CC(=O)O)cccc2c1=O	< 3.70	3.79	–
O=C(CC(C(=O)c1ccsc1)c1ccc2c(c1)OCO2)c1ccccc1 (stereo not drawn)	< 3.70	< 3.70	–
COC(=O)/C(=C/c1ccc(OC)cc1)C(C(=O)O)=C1CCCC1	< 3.80	–	–
OCC1CCCCN1Cc1nc2ccc(Cl)cc2[nH]1 (stereo not drawn)	< 3.70	3.71	–
CCCCCCCCCCCCCCCCCCCCCCNc1ccn(C2CC(OP(=O)(O)OCC3OC(n4cc(C)c(=O)[nH]c4=O)CC3N=[N+]=[N-])C(COP(=O)(O)OCC3CCC(n4ccc(N)nc4=O)O3)O2)c(=O)n1 (stereo not drawn)	6.63	4.42	–
Clc1nc(Cl)nc(Nc2ncccn2)n1	< 3.70	< 3.70	–
CCC1=CCN(c2ccc(C)cc2)OC1c1ccc(OC)cc1 (stereo not drawn)	< 4.49	< 4.49	–

SMILES	pEC50	pIC50	outcome
CC(=O)Nc1cccc(N2C(=O)/C(=C\c3cccc(Oc4ccccc4)c3)SC2c2ccccc2)c1 (stereo not drawn)	< 3.70	4.51	–
CC1(C)Cc2cc(C(=O)O)c3c(c2C1=O)COCC3	–	–	inactive
O=C1NCCCNCCCNCCCNC(=O)c2cccc1n2	< 3.70	3.73	–
CCOc1ccc(N2CC(=O)N3CCCC(C)N3C(=O)C2)cc1 (stereo not drawn)	< 3.70	3.77	–
O=C1CCCc2cc3c(cc21)CCC3C(=O)O (stereo not drawn)	–	–	inactive
CC1=C(C(=O)Nc2ccc([N+](=O)[O-])cc2)C(c2ccco2)C(C(=O)Nc2ccc([N+](=O)[O-])cc2)=C(C)N1	< 4.71	4.96	–
COC(=O)c1c2cccccc-2c(Cc2c3cccccc-3c(C(=O)OC)c2O)c1O	< 3.70	< 3.70	–
CCCC(C(=O)OCCN(CC)CC)(c1ccccc1)c1ccccc1	< 3.70	3.99 and 4.43	–
O=C(Cn1c(=O)cc(Nc2ccccc2)c2ccccc21)Nc1ccccc1	< 3.70	4.05	–
O=C1c2cccc(O)c2C(=O)c2cccc(O)c21	< 5.36	< 5.36	–
c1ccc(-c2nnc3sc4ccccc4n23)cc1	< 3.70	< 3.70	–
CCOC(=O)C(C)(C)C(OP(OCC)OCC)=C(C)C	< 3.23	< 3.23	–
Nc1cc(S(N)(=O)=O)ccc1SSc1ccc(S(N)(=O)=O)cc1N	4.67	4.20	–
NCCN.NCCN.NCCN.O=C([O-])[C@@H](O)[C@@H](O)C(=O)[O-].[Cl-].[Co+3]	< 4.00	< 4.00	–
Clc1nn2nnnc2c2ccccc12	< 4.18	5.91	–
C/C=C1/C(=Cc2[nH]c(C=c3[nH]/c(=C/C4=NC(=O)C(CC)=C4C)c(C)c3CCC(=O)O)c(CCC(=O)O)c2C)NC(=O)C1C (stereo not drawn)	< 4.54	< 4.54	–
O=C(NNC(=O)c1ccccc1O)c1ccccc1O	< 6.70	6.99	–
CC(=O)NNc1nc(C)c(C(=O)/C=C/c2ccc(NC(C)=O)cc2)s1	< 4.55	< 4.55	–
COc1ccc(C2CC(c3c(O)ccc4ccccc34)=NN2)cc1OC (stereo not drawn)	< 3.70	5.26	–
CN1C(=O)C(CCO)(C(C)(C)C)c2ccccc21 (stereo not drawn)	< 3.70	< 3.70	–
O=c1oc2ccccc2c(O)c1Sc1c(O)c2ccccc2oc1=O	–	–	inactive
COCCOCCOCCOCCOCCOCCOCCOCCOCCOCCOCCOCCOCCOCCOCCOCCOCC(=O)N(CCn1cnc2nc(NC(=O)c3ccccc3)[nH]c(=O)c21)CCn1cnc2nc(NC(=O)c3ccccc3)[nH]c(=O)c21	5.88	4.32	–
CCc1ccc(N2C(=O)C(CC(=O)O)SC23C(=O)N(Cc2ccccc2)c2ccccc23)cc1 (stereo not drawn)	< 3.28	4.54	–

SMILES	pEC50	pIC50	outcome
COC(=O)C1CCCC2(C1)OCCO2 (stereo not drawn)	< 3.60	< 3.60	–
CCOC(=O)/C(=C\c1cccc(Br)c1)C(C)=O	< 3.64	4.32	–
OCn1nc(Cl)c2cc(Cl)ccc21	< 3.70	4.25	–
Oc1ccccc1C1SC(c2ccccc2O)SC(c2ccccc2O)S1 (stereo not drawn)	< 3.70	4.94	–
COc1cc2c(c(OC)c1OC)-c1ccc(OC)c(=O)cc1[C@@H](NC(C)=O)CC2	–	–	inactive
COC1=CC(=O)c2nccc(C)c2C1=O	–	–	inactive
CC(=O)NS(=O)(=O)c1ccc(NC(=O)c2ccccc2SSc2ccccc2[N+](=O)[O-])cc1	5.05	4.51	–
COc1ccc2c(c1)[C@@H]1c3cc(OC)c(OC)cc3CCN1CCC2	< 3.70	< 3.70	–
COc1ccc2c(c1)OCC1(O)Cc3ccccc3OC21 (stereo not drawn)	< 3.70	3.97	–
O=c1[nH]nc(-c2ccccc2)n1/N=C\c1ccccc1	< 3.70	< 3.70	–
C/C(=N/N)c1ccc2[nH]c3c(C)cc([N+](=O)[O-])c(C)c3c2c1	< 4.61	5.31	–
O=c1c2ccccc2oc2cc3c(c(O)c12)CCCC3	< 3.70	< 3.70	–
Cc1cc(C)cc(Sc2c([N+](=O)[O-])ncn2C)c1	< 4.56	4.79	–
COC(=O)CC(=O)OC1C[C@@H]2CCC3C(C)(C)CCC[C@]3(C)C23CC[C@@]1(C)C3 (stereo partly drawn)	< 4.74	< 4.74	–
COc1ccc(S(=O)(=O)Cc2ccc(C(=O)O)cc2)cc1	< 3.09	< 3.09	–
CC(O)C(C(=O)O)N(CC1(O)OCC(O)C(O)C1O)N=O (stereo not drawn)	–	–	inactive
Cn1cnc(N)c(N=O)c1=O	< 3.70	< 3.70	–
CC(C)[P+](c1ccccc1)(c1ccccc1)c1ccccc1	< 3.70	5.26	–
C=C1c2nc3ccccc3n2C=C(c2ccc(OC)cc2)N1c1ccccc1	< 3.70	5.42	–
Cc1ccc(S(=O)(=O)NCCCSCCN)cc1	< 3.20	3.25	–
